According to patent US8263642B2, “Antimicrobial compounds and methods of use thereof” (Vanderbilt University, priority 2008, dated 2012):

Assays:
[1] = system: HssRS-dependent hrtAB expression; assay: Luminescence-based assay to monitor HssRS-dependent hrtAB expression (phrtABlux reporter), Newman; assay type: cell-based, Staphylococcus aureus; conditions: for activation at 0.0825 µM: Staphylococcus aureus, NEWMAN, read-out: % Lumi, luminescence induced by the compound compared to the heme control (82.5 nM) in the same plate; for activation at 0.0825 µM / Luminescence: Newman; for Luminescence: raw luminescence value obtained in a luminometer
Summary of the method: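 S. aureus Newman wild type or ΔhssR carrying a hrtAB promoter–luxCDABE reporter (phrtABlux), grown in TSB with 10 μg/ml chloramphenicol at 37 °C. Light output read against 82.5 nM heme as the in-plate positive control. Activity given as % of heme-induced luminescence.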

[2] = system: hrtAB-driven expression of the xylE reporter gene; assay: XylE reporter assay (hrtAB promoter-xylE), Newman; assay type: cell-based, Staphylococcus aureus; conditions: for XylE (0.05): level of XylE induction at 0.05 uM of the compound; for XylE (0.5): level of XylE induction at 0.5 uM of the compound; for XylE (5.0): level of XylE induction at 5.0 uM of the compound; for XylE (50.0): level of XylE induction at 50.0 uM of the compound
Summary of the method: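 S. aureus carrying hrtAB promoter-xylE fusion in pOS1 grown O/N at 37° C in TSB with chloramphenicol, lysed with lysostaphin. Lysate XylE activity read as 2-hydroxymuconic semialdehyde formation from 0.2 mM pyrocatechol (A375, every minute for 30 minutes), normalised to BCA protein; unit = 1 nmol/min/mg at 30° C.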

response regulator HssR [3] = assay: HssR dependence of XylE inducing activity, Newman; assay type: cell-based, Staphylococcus aureus; conditions: whether XylE inducing activity requires HssR
Procedure: With reference to Table 1, “Luminescence” refers to the raw luminescence value obtained in a luminomter. “Control (82.5 nm)” refers to the luminescence value obtained from heme at 82.5 nM as a positive control in the same plate as the experimental. “% lum” is the percentage of luminescence induced by the compound as compared to the heme control in the same plate. […] All of these assays are described in the application. […] “N/T” indicates the test was not performed. […]
S. aureus strains harboring the appropriate reporter construct were inoculated into 500 μl of TSB containing 10 μg/ml chloramphenicol in 1.5 ml tubes. Cultures were grown O/N at 37° C. with shaking. Bacteria were pelleted by centrifugation and spent medium was aspirated. The pellet was washed once with 500 μl of 20 mM potassium phosphate, pH 7.6, and resuspended in 150 μl of 100 mM potassium phosphate buffer, pH 8.0, 10% (v/v) acetone, 25 μg/ml lysostaphin. After 20 minute incubation at 37° C. and 5 minute incubation on ice, samples were centrifuged at 20,000 g for 30 minutes at 4° C. 1-10 μl of supernatant was added to a 96-well plate and 200 μl of 100 mM potassium phosphate, pH 8.0, 0.2 mM pyrocatechol was added to each well. Formation of 2-hydroxymuconic semialdehyde was tracked by measuring the absorbance at 375 nm every minute for 30 minutes on a Varian MP 50 microplate reader. Protein concentration in samples was determined by BCA (Pierce). One unit of specific activity of XylE in a sample is defined as the formation of 1 nmol of 2-hydroxymuconic semialdehyde per minute per milligram of cellular protein at 30° C. (Chien, Y., Manna, A. C., Projan, S. J., and Cheung, A. L. 1999, “SarA, a global regulator of virulence determinants in Staphylococcus aureus, binds to a conserved motif essential for sar-dependent gene regulation. J. Biol. Chem. 274, 37169-37176).

response regulator HssR [4] = assay: HssR dependence, Stern test; assay type: cell-based
Procedure: (§1) Methods for obtaining the data shown in Tables 1 and 2 are described herein.
(§2) With reference to Table 1, “Luminescence” refers to the raw luminescence value obtained in a luminomter. “Control (82.5 nm)” refers to the luminescence value obtained from heme at 82.5 nM as a positive control in the same plate as the experimental. “% lum” is the percentage of luminescence induced by the compound as compared to the heme control in the same plate. […] All of these assays are described in the application. […] “N/T” indicates the test was not performed.

Stern = assay: Heme adaptation, Stern test; assay type: cell-based
Procedure: as §1, §2

[5] = Solubility of heme in solution; assay type: physicochemical; conditions: concentrations above this are insoluble

Compound	activation at 0.0825 µM [1] [%]	Luminescence [1]	XylE (0.05) [2]	XylE (0.5) [2]	XylE (5.0) [2]	XylE (50.0) [2]	HssR Dep (response regulator HssR [3])	HssR Dep (response regulator HssR [4])	Heme Adapt (Stern)	light production on solid medium ([1]; S. aureus containing phrtABlux, solid medium without or with 4 μM heme)	luminescence in liquid media ([1]; S. aureus wildtype containing phrtABlux, liquid media with or without heme)	increase in luminescence ([1]; exposure of S. aureus to 3 μM heme, preliminary results) [fold]	increase in luminescence over negative control strains ([1]; heme-exposed wildtype harboring phrtABlux vs wildtype plux and ΔhssR phrtABlux, preliminary results) [fold]	soluble concentration in solution [5] [µM]
CC1=NN(c2ccccc2)C(=O)/C1=N\Nc1ccccc1O	60.3	1848	0.07	0.05	0.2	1	−							
CCOC(=O)c1c(NC(=O)c2ccccc2)sc(C(C)=O)c1-c1ccccc1	109	312	0.03	1	0.3	0.08	−							
O=C(Nc1ccc(NC(=O)c2cccs2)c(Cl)c1)c1cccs1	111	406	0.05	0.05	0.9	0.06	−							
Brc1ccc(-c2nc(NCc3ccccc3)c3ccccc3n2)cc1		4302	1	1	0.5	0.2	−							
COc1ccc(CCNC(=O)C(=O)Nc2cccc(Cl)c2)cc1OC	355	2830	1	0.5	0.8	5	−							
O=c1c2ccccc2nc(/C=C\c2ccccc2Cl)n1-c1ccccc1O		6843	0.08	1	50	1	+							
O=C(O)C1CSC(c2cccnc2)=N1 (stereo not shown)		2360	1	1	1	3	−							
Cc1ccc(-c2nnc(SCC(=O)NC3CCCC3)nc2-c2ccc(C)cc2)cc1	855	1658		1	0.5	0.04	−							
c1ccc(-c2ccc(CSc3nc4ccccc4[nH]3)cc2)cc1		1822		0.03	0.08	11	+							
CC(C)CSc1nnc(-c2ccccc2)c(-c2ccccc2)n1	383	1706		0.04	0.07	1	+							
COC(NC(=O)Nc1nc2ccccc2s1)(C(F)(F)F)C(F)(F)F	280	1747		4	0.04	7	−							
Cc1ccc(CSCc2ccc(C(=O)NCc3ccc(F)cc3)o2)cc1	198	1653		0	3	5	+							
Cc1nc(Nc2ccc(Oc3ccccc3)cc2)c2c(C)c(C)sc2n1		1627		0.6	0.09	0	−							
CCCN1C(=O)/C(=C2/C(=O)N(CC(=O)Nc3ccc(Cl)cc3)c3ccccc32)SC1=S [drawing 28]		1600	1	0.06	0.07	0.02	−							
Oc1c(-c2cc(-c3ccco3)[nH]n2)ccc2ccccc12 [drawing 131]								−	−					
CC(NC(=O)C1(c2ccccc2)CCCC1)C1COc2ccccc2O1 (stereo not shown) [drawing 132]								+	+					
O=C(N/N=C/c1ccc(-c2ccc(Br)cc2)o1)C1COc2ccccc2O1 (stereo not shown) [drawing 133]								+	+					
O=C(N/N=C/c1ccc(-c2cccc(C(F)(F)F)c2)o1)C1COc2ccccc2O1 (stereo not shown) [drawing 134]								−	−					
Cc1ccc(NS(=O)(=O)c2ccc3c(c2)Cc2cc(S(=O)(=O)Nc4ccc(C)cc4)ccc2-3)cc1 [drawing 135]								+	+					
COc1ccccc1NC1=C/C(=N\S(=O)(=O)c2ccc(Br)cc2)c2ccccc2C1=O [drawing 136]								+	+					
C=CC1=C(C)c2cc3[n-]c(cc4[n-]c(cc5nc(cc1n2)C(C)=C5C=C)c(C)c4CCC(=O)O)c(CCC(=O)O)c3C.[Fe+2] [heme, reference compound]										generated light exclusively upon heme exposure	robust luminescence	100	100	≤ 30
